Measured values: ChEMBL document CHEMBL3822432, “Antibacterial and anticancer activity of a series of novel peptides incorporating cyclic tetra-substituted C(α) amino acids” (Bioorg Med Chem, 2016)
Converted amounts (≈) assume the structure as drawn.

Tests used:
[1] = Antiproliferative activity against human UACC62 cells after 72 hrs by Celltiter-Glo luminescent cell viability assay; assay type: functional, cell-based; conditions: UACC-62, 72 h
Klebsiella aerogenes [2] = assay: Antibacterial activity against carbapenem-resistant Enterobacter aerogenes NCDC819-56 ATCC 13048 by two fold serial dilution method; assay type: functional
[3] = Antibacterial activity against Bacillus anthracis Ames NR-3838 by two fold serial dilution method; assay type: functional, Bacillus anthracis str. Ames
[4] = Antiproliferative activity against human COLO205 cells after 72 hrs by Celltiter-Glo luminescent cell viability assay; assay type: functional, cell-based; conditions: COLO 205, 72 h
[5] = Antibacterial activity against Clostridium difficile VIP 10463 ATCC 43255 by two fold serial dilution method; assay type: functional, Clostridium difficile ATCC 43255; conditions: Clostridioides difficile
A549 = assay: Antiproliferative activity against human A549 cells after 72 hrs by Celltiter-Glo luminescent cell viability assay; assay type: functional, cell-based; conditions: A549, 72 h
[6] = system: Mycobacterium tuberculosis; assay: Antibacterial activity against Mycobacterium tuberculosis H37Ra ATCC 2517 by two fold serial dilution method; assay type: functional
[7] = Antibacterial activity against Yersinia pestis CO92 NR641 by two fold serial dilution method; assay type: functional
[8] = Antiproliferative activity against human DLD1 cells after 72 hrs by Celltiter-Glo luminescent cell viability assay; assay type: functional, cell-based; conditions: DLD-1, 72 h
[9] = system: Burkholderia pseudomallei; assay: Antibacterial activity against Burkholderia pseudomallei AHS 1 NCTC 8016 by two fold serial dilution method; assay type: functional
Streptococcus pneumoniae = assay: Antibacterial activity against Streptococcus pneumoniae 262 ATCC 49619 by two fold serial dilution method; assay type: functional
Pseudomonas aeruginosa [10] = assay: Potency index, ratio of Ac-GF-Tic-Oic-GK-Tic-Oic-GF-Tic-Oic-GK-Tic-KKKK-CONH2 MIC to compound MIC for Pseudomonas aeruginosa Boston 41501 ATCC 27853; assay type: functional
Pseudomonas aeruginosa [11] = assay: Antibacterial activity against Pseudomonas aeruginosa Boston 41501 ATCC 27853 by two fold serial dilution method; assay type: functional
[12] = Antibacterial activity against Francisella tularensis SCHU S4 NR-643 by two fold serial dilution method; assay type: functional
Acinetobacter baumannii [13] = assay: Potency index, ratio of Ac-GF-Tic-Oic-GK-Tic-Oic-GF-Tic-Oic-GK-Tic-KKKK-CONH2 MIC to compound MIC for Acinetobacter baumannii B5W71 ATCC 15149; assay type: functional
Neisseria gonorrhoeae = assay: Antibacterial activity against Neisseria gonorrhoeae F-18 ATCC 49226 by two fold serial dilution method; assay type: functional
RL = assay: Antiproliferative activity against human RL cells after 72 hrs by Celltiter-Glo luminescent cell viability assay; assay type: functional, cell-based
[14] = Antiproliferative activity against human PC3 cells after 72 hrs by Celltiter-Glo luminescent cell viability assay; assay type: functional, cell-based; conditions: PC-3, 72 h
[15] = Antiproliferative activity against human MIAPaCa2 cells after 72 hrs by Celltiter-Glo luminescent cell viability assay; assay type: functional, cell-based; conditions: MIA PaCa-2, 72 h
Staphylococcus aureus [16] = assay: Antibacterial activity against Staphylococcus aureus Seattle 1945 ATCC 25923 by two fold serial dilution method; assay type: functional
[17] = Antibacterial activity against carbapenem-resistant Klebsiella pneumoniae K6 ATCC 700603 by two fold serial dilution method; assay type: functional, Klebsiella pneumoniae 700603
Enterococcus faecium = assay: Potency index, ratio of Ac-GF-Tic-Oic-GK-Tic-Oic-GF-Tic-Oic-GK-Tic-KKKK-CONH2 MIC to compound MIC for Enterococcus faecium; assay type: functional
Enterococcus faecalis = assay: Antibacterial activity against Enterococcus faecalis Portland ATCC 29212 by two fold serial dilution method; assay type: functional; conditions: ATCC 29212 Portland
[18] = (§1) Antibacterial activity against Salmonella enterica LT2 Typhimurium ATCC 15277 by two fold serial dilution method; assay type: functional
CFPAC-1 = assay: Antiproliferative activity against human CFPAC-1 cells after 72 hrs by Celltiter-Glo luminescent cell viability assay; assay type: functional, cell-based; conditions: CFPAC-1, 72 h
[19] = Antiproliferative activity against human IGROV1 cells after 72 hrs by Celltiter-Glo luminescent cell viability assay; assay type: functional, cell-based; conditions: IGROV-1, 72 h
Klebsiella aerogenes [20] = assay: Potency index, ratio of Ac-GF-Tic-Oic-GK-Tic-Oic-GF-Tic-Oic-GK-Tic-KKKK-CONH2 MIC to compound MIC for carbapenem-resistant Enterobacter aerogenes NCDC819-56 ATCC 13048; assay type: functional; conditions: pooled result: one value given for 3 cell lines, strains, targets or settings
Staphylococcus aureus [21] = assay: Antibacterial activity against methicillin-resistant Staphylococcus aureus USA 300 NRS 384 by two fold serial dilution method; assay type: functional
Acinetobacter baumannii [22] = assay: Antibacterial activity against Acinetobacter baumannii B5W71 ATCC 15149 by two fold serial dilution method; assay type: functional
MCF7 = assay: Antiproliferative activity against human MCF7 cells after 72 hrs by Celltiter-Glo luminescent cell viability assay; assay type: functional, cell-based; conditions: MCF7, 72 h
A498 = assay: Antiproliferative activity against human A498 cells after 72 hrs by Celltiter-Glo luminescent cell viability assay; assay type: functional, cell-based; conditions: A498, 72 h
NCI-H69 = assay: Antiproliferative activity against human NCI-H69 cells after 72 hrs by Celltiter-Glo luminescent cell viability assay; assay type: functional, cell-based; conditions: NCI-H69, 72 h
[23] = system: Salmonella enterica subsp. enterica serovar Typhimurium str. LT2; assay: as §1; assay type: functional

Compound: CC(=O)NCC(=O)N[C@H](Cc1ccccc1)C(=O)NC1(C(=O)NCC(=O)N2C(C(=O)N[C@@H](CCCCN)C(=O)NC3(C(=O)NCC(=O)N4C(C(=O)N[C@@H](Cc5ccccc5)C(=O)NC5(C(=O)NCC(=O)N6C(C(=O)NCC(=O)N[C@@H](CCCCN)C(=O)N7C(C(=O)N[C@H](CCCCN)C(=O)N[C@H](CCCCN)C(=O)N[C@H](CCCCN)C(=O)N[C@H](CCCCN)C(N)=O)CC8CCCCC87)CC7CCCCC76)CCCCC5)CC5CCCCC54)CCCCC3)CC3CCCCC32)CCCCC1 (stereo in doubt)
- IC50 [1]: > 7.5 µM
- MIC (Klebsiella aerogenes [2]): > 42 µM
- MIC [3]: 20.9 µM (≈ 50 µg/mL)
- IC50 [4]: > 7.5 µM
- MIC [5]: 2.62 µM (≈ 6.26 µg/mL)
- IC50 (A549): > 7.5 µM
- MIC [6]: 20.9 µM (≈ 50 µg/mL)
- MIC [7]: > 42 µM
- IC50 [8]: > 7.5 µM
- MIC [9]: > 42 µM
- MIC (Streptococcus pneumoniae): > 42 µM
- Ratio (Pseudomonas aeruginosa [10]): 0.5232
- MIC (Pseudomonas aeruginosa [11]): 20.9 µM (≈ 50 µg/mL)
- MIC [12]: 20.9 µM (≈ 50 µg/mL)
- Ratio (Acinetobacter baumannii [13]): 8.372
- MIC (Neisseria gonorrhoeae): 20.9 µM (≈ 50 µg/mL)
- IC50 (RL): 6.7 µM
- IC50 [14]: > 7.5 µM
- IC50 [15]: > 7.5 µM
- MIC (Staphylococcus aureus [16]): > 42 µM
- MIC [17]: > 42 µM
- Ratio (Enterococcus faecium): 4.2
- MIC (Enterococcus faecalis): > 42 µM
- MIC [18]: 41.9 µM (≈ 100 µg/mL)
- IC50 (CFPAC-1): > 7.5 µM
- IC50 [19]: > 7.5 µM
- Ratio (Klebsiella aerogenes [20]): 1.05
- MIC (Staphylococcus aureus [21]): > 42 µM
- MIC (Acinetobacter baumannii [22]): 20.9 µM (≈ 50 µg/mL)
- IC50 (MCF7): > 7.5 µM
- IC50 (A498): > 7.5 µM
- IC50 (NCI-H69): > 7.5 µM

Compound: GENTAMICIN
- MIC (Klebsiella aerogenes [2]): 1.04 µM
- MIC (Pseudomonas aeruginosa [11]): 8.3 µM
- MIC [23]: 2.09 µM
- MIC (Acinetobacter baumannii [22]): 2.09 µM
